In PubChem BioAssay AID1963972 (Molecular Pharmacology Branch, DTP, NCI, 2024):

System: 945468-187-T-J2-PDC spheroids viability
Test: Anticancer human tumor 945468-187-T-J2-PDC patient-derived rectal carcinoma cell line growth inhibition [PI3K]
Conditions: spheroids with HUVEC and MSC; for IC50: curve of first compound; for viability, T/C: stronger effect = lower value; active = viability on the fitted dose curve at most 10% of control; inactive = the rest
From the text: Combinatorial screen of targeted agents with the PI3K inhibitors inavolisib, alpelisib, duvelisib, and copanlisib in multi-cell type tumor spheroids
A high-throughput screen of multi-cell type tumor spheroids was designed to identify active combinations of targeted small molecules and PI3K pathway inhibitors. Complex spheroids include a stromal component modeled by human endothelial cells (HUVEC) and fibroblasts modeled by human mesenchymal stem cells (MSCs). The concentration ranges selected for each drug and investigational agent were based upon clinically achievable concentrations if the clinical Cmax of the agent was known.
Compounds. The drugs and investigational agents: inavolisib (NSC800729), alpelisib (NSC765974), duvelisib (NSC772469), copanlisib (NSC816437), ipatasertib (NSC767898), afuresertib (NSC778305), talazoparib (NSC767125), sapanisertib (NSC764658), selumetinib (NSC741078), tovorafenib (DAY101, NSC766906), vemurafenib (NSC761431), ravoxertinib (NSC781343), sotorasib (NSC818433), MRTX1133 (NSC 836407), abemaciclib (NSC 768073), palbociclib (NSC758247), venetoclax (NSC 766270), SY5609 (NSC837396), enzalutamide (NSC755605), and darolutamide (NSC825331), were obtained from the National Cancer Institute (NCI) Developmental Therapeutics Program Chemical Repository. The FDA-approved anticancer drug set is available from the NCI Developmental Therapeutics Program. […] The stock solutions were prepared in dimethyl sulfoxide (DMSO, Sigma-Aldrich, St. Louis, MO, cat. D2650) at 800-fold the tested concentration and stored at -70 degrees C prior to their use. All drugs and investigational agents were tested over a range starting from a high concentration at or near the clinical Cmax and decreasing in half-log increments. If the clinical Cmax for an agent had not been determined, the highest concentration tested was 10 microM.
Cell Culture. All cells were maintained in an incubator at 37 degrees C and 5% CO2 with 95% humidity. The PDC lines were cultured according to standard operating procedures established by the NCI PDMR (https://pdmr.cancer.gov/sops/default.htm). All PDCs were thawed and cultured in Matrigel-coated flasks prepared with a working solution of 1X Ham's F-12 nutrient mix, without supplementation (Invitrogen, Waltham, MA, cat. 11765054), 100 U/mL penicillin-streptomycin (Invitrogen, cat. 15140122), and 2.5% Matrigel (Corning Inc., Corning, NY, cat. 354248) for the first three passages. The 354836-022-R-J1-PDC, 475296-252-R-J1-PDC, and 997726-040-R-J2-PDC lines were cultured in 6A media, which includes advanced DMEM/F-12 (Thermo Fisher Scientific, cat. 12634028), 10 mM HEPES (Thermo Fisher Scientific, cat. 15630080), 1X GlutaMAX supplement (Thermo Fisher Scientific, cat. 35050061), 0.1 mg/mL primocin (InvivoGen, San Diego, CA, cat. ant-pm-2), 10% defined fetal bovine serum, heat inactivated (HyClone Laboratories Inc., Logan, UT, cat. SH30070.03HI), 50% L-WRN conditioned media (ATCC, cat. CRL-3276), 1.25 mM N-Acetyl-L-cysteine (Sigma-Aldrich, cat. A9165), 10 mM nicotinamide (Sigma-Aldrich, cat. N0636), 1X B-27 supplement (Thermo Fisher Scientific, cat. 17504044), 1X N-2 supplement (Thermo Fisher Scientific, cat. 17502048), and 10 microM Y-27632 dihydrochloride (Tocris Bioscience, Bristol, United Kingdom, cat. 1254). The 624824-186-R-J2-PDC line was cultured in 6C/Colon 1B media, which includes all 6A media components plus 50 ng/mL human EGF recombinant protein (Thermo Fisher Scientific, cat. PHG0311). […]
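Note: spheroids exposed to compounds for seven days before reading.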

Cn1cnc2c(F)c(Nc3ccc(Br)cc3Cl)c(C(=O)NOCCO)cc21 + CC(Nc1ccc2c(c1)OCCn1cc(N3C(=O)OCC3C(F)F)nc1-2)C(N)=O
inactive: viability, T/C (second compound 0.00316 µM, first compound 0.00949 µM) 121% | viability, T/C (second compound 0.00316 µM, first compound 0.03 µM) 86.4% | viability, T/C (second compound 0.00316 µM, first compound 0.0949 µM) 114% | viability, T/C (second compound 0.00316 µM, first compound 0.3 µM) 75.8% | viability, T/C (second compound 0.00316 µM, first compound 0.949 µM) 70.7% | viability, T/C (second compound 0.00316 µM, first compound 3 µM) 74.5% | viability, T/C (second compound 0.01 µM, first compound 0.00949 µM) 92.2% | viability, T/C (second compound 0.01 µM, first compound 0.03 µM) 101% | viability, T/C (second compound 0.01 µM, first compound 0.0949 µM) 92.2% | viability, T/C (second compound 0.01 µM, first compound 0.3 µM) 89.4% | viability, T/C (second compound 0.01 µM, first compound 0.949 µM) 74.9% | viability, T/C (second compound 0.01 µM, first compound 3 µM) 78.5% | viability, T/C (second compound 0.0316 µM, first compound 0.00949 µM) 121% | viability, T/C (second compound 0.0316 µM, first compound 0.03 µM) 99.6% | viability, T/C (second compound 0.0316 µM, first compound 0.0949 µM) 112% | viability, T/C (second compound 0.0316 µM, first compound 0.3 µM) 93.7% | viability, T/C (second compound 0.0316 µM, first compound 0.949 µM) 78.8% | viability, T/C (second compound 0.0316 µM, first compound 3 µM) 74.5% | viability, T/C (second compound 0.1 µM, first compound 0.00949 µM) 88.9% | viability, T/C (second compound 0.1 µM, first compound 0.03 µM) 102% | viability, T/C (second compound 0.1 µM, first compound 0.0949 µM) 81.2% | viability, T/C (second compound 0.1 µM, first compound 0.3 µM) 80.4% | viability, T/C (second compound 0.1 µM, first compound 0.949 µM) 75.1% | viability, T/C (second compound 0.1 µM, first compound 3 µM) 74.2% | viability, T/C (second compound 0.316 µM, first compound 0.00949 µM) 69.9% | viability, T/C (second compound 0.316 µM, first compound 0.03 µM) 88.6% | viability, T/C (second compound 0.316 µM, first compound 0.0949 µM) 72.4% | viability, T/C (second compound 0.316 µM, first compound 0.3 µM) 75.6% | viability, T/C (second compound 0.316 µM, first compound 0.949 µM) 75.9% | viability, T/C (second compound 0.316 µM, first compound 3 µM) 66.1% | viability, T/C (second compound 1 µM, first compound 0.00949 µM) 75.7% | viability, T/C (second compound 1 µM, first compound 0.03 µM) 72% | viability, T/C (second compound 1 µM, first compound 0.0949 µM) 72.8% | viability, T/C (second compound 1 µM, first compound 0.3 µM) 65.2% | viability, T/C (second compound 1 µM, first compound 0.949 µM) 45% | viability, T/C (second compound 1 µM, first compound 3 µM) 37.6%
0.714 µM: IC50 (second compound 1 µM)
> 3 µM: IC50 (second compound 0.00316 µM) | IC50 (second compound 0.01 µM) | IC50 (second compound 0.0316 µM) | IC50 (second compound 0.1 µM) | IC50 (second compound 0.316 µM)
